Values of other authors as cited in US6743821B2, “Glycerol-lactate esters for use as an energy supplement during exercise and recovery” (priority 2001, dated 2004).

How the values were obtained:
[1] = blood of Wistar rats
[2] = test system: isolated working hearts; conditions: concentrated sodium lactate added to hearts from shocked animals

conversion of the infused tracer in the blood [1] | SMILES | performance of isolated working hearts [2]
quickly converted to [3-^13C]lactate | [13CH3]C(=O)C(=O)O [[3-^13C]pyruvate] | 
 | CC(O)C(=O)[O-].[Na+] (centres unmarked) [sodium lactate] | significantly enhanced
